Measurements from patent publication US6677368B2, “4-aryl substituted indolinones” (Sugen, Inc., priority 2000, dated 2004).

Target: T1, FLK-1 (Mus musculus, UniProt P35918)
T1 construct: GST-Flklcd purified from sf9 recombinant baculovirus transfomnation (SUGEN, Inc.); host or cells: Sf9 insect cells, recombinant baculovirus
Assay: GST-FLK-1 bioassay (tyrosine kinase activity on poly(glu-tyr))
Type: biochemical
Conditions: GST-Flk1, poly(glu-tyr) substrate, 0.5 μM ATP
Description: This assay analyzes the tyrosine kinase activity of GST-Flk1 on poly(glu-tyr) peptides.
1. Corning 96-well ELISA plates (Corning Catalog No. 25805-96).
2. poly(glu-tyr) 4:1, lyophilizate (Sigma Catalog No. P0275), 1 mg/ml in sterile PBS.
3. PBS Buffer: for 1 L, mix 0.2 g KH2PO4, 1.15 g Na2HPO4, 0.2 g KCl and 8 g NaCl in approx. 900 ml dH2O. When all reagents have dissolved, adjust the pH to 7.2 with HCl. Bring total volume to 1 L with dH2O.
4. PBST Buffer: to 1 L of PBS Buffer, add 1.0 ml Tween-20.
5. TBB—Blocking Buffer: for 1 L, mix 1.21 g TRIS, 8.77 g NaCl, 1 ml TWEEN-20 in approximately 900 ml dH2O. Adjust pH to 7.2 with HCl. Add 10 g BSA, stir to dissolve. Bring total volume to 1 L with dH2O. Filter to remove particulate matter.
6. 1% BSA in PBS: add 10 g BSA to approx. 990 ml PBS buffer, stir to dissolve. Adjust total volume to 1 L with PBS buffer, filter to remove particulate matter.
8. GST-Flklcd purified from sf9 recombinant baculovirus transfomnation (SUGEN, Inc.).
12. Kinase Dilution Buffer (KDB): mix 10 ml Hepes (pH 7.5), 1 ml 5M NaCl, 40 μL 100 mM sodium orthovanadate and 0.4 ml of 5% BSA in dH2O with 88.56 ml dH2O.
13. NUNC 96-well V bottom polypropylene plates, Applied Scientific Catalog #AS-72092
14. EDTA: mix 14.12 g ethylenediaminetetraacetic acid (EDTA) with approx. 70 ml dH2O. Add 10 N NaOH until EDTA dissolves. Adjust pH to 8.0. Adjust total volume to 100 ml with dH2O.
15. 1° and 2° Antibody Dilution Buffer: mix 10 ml of 5% BSA in PBS buffer with 89.5 ml TBST.
16. Anti-phosphotyrosine rabbit polyclonal antisera (SUGEN, Inc.)
17. Goat anti-rabbit HRP conjugate.
18. ABST solution: To approx. 900 ml dH2O add 19.21 g citric acid and 35.49 g Na2HPO4. Adjust pH to 4.0 with phosphoric acid. Add 2,2′-Azinobis(3-ethyl-benzthiazoline-6-sulfonic acid (ABTS, Sigma, Cat. No. A-1888, hold for approx. ½ hour, filter.
19. 30% Hydrogen Peroxide.
20. ABST/H2O2: add 3 μl of H2O2 to 15 ml of ABST solution.
1. Coat Corning 96-well ELISA plates with 2 μg of polyEY in 100 μl PBS/well, hold at room temperature for 2 hours or at […] overnight. Cover plates to prevent evaporation.
2. Remove unbound liquid from wells by inverting plate. Wash once with TBST. Pat the plate on a paper towel to remove excess liquid.
3. Add 100 μl of 1% BSA in PBS to each well. Incubate, with shaking, for 1 hr. at room temperature.
5. Soak wells with 50 mM HEPES (pH7.5, 150 μl/well).
6. Dilute test compound with dH2O/4% DMSO to 4 times the desired final assay concentration in 96-well polypropylene plates.
7. Add 25 μl diluted test compound to each well of ELISA plate. In control wells, place 25 μl of dH2O/4% DMSO.
8. Dilute GST-Flk1 0.005 μg (5 ng)/well in KDB.
9. Add 50 μl of diluted enzyme to each well.
10. Add 25 μl 0.5 M EDTA to negative control wells.
11. Add 25 μl of 40 mM MnCl2 with 4×ATP (2 μM) to all wells (100 μl final volume, 0.5 μM ATP final concentration in each well).
12. Incubate, with shaking, for 15 minutes at room temperature.
13. Stop reaction by adding 25 μl of 500 mM EDTA to each well.
14. Wash 3× with TBST and pat plate on paper towel to remove excess liquid.
15. Add 100 μl per well anti-phosphotyrosine antisera, 1:10,000 dilution in antibody dilution buffer. Incubate, with shaking, for 90 min. at room temperature.
17. Add 100 μl/well of goat anti-rabbit HRP conjugate (1:6,000 in antibody dilution buffer). Incubate, with shaking, for 90 minutes are room temperature.
19. Add 100 μl room temperature ABST/H2O2 solution to each well.
20. Incubate, with shaking for 15 to 30 minutes at room temperature.
21. If necessary, stop reaction by adding 100 μl of 0.2 M HCl to each well.
22. Read results on Dynatech MR7000 ELISA reader with test filter at 410 nM and reference filter at 630 nM.

T1 sequence (P35918 784-1345 limits assumed): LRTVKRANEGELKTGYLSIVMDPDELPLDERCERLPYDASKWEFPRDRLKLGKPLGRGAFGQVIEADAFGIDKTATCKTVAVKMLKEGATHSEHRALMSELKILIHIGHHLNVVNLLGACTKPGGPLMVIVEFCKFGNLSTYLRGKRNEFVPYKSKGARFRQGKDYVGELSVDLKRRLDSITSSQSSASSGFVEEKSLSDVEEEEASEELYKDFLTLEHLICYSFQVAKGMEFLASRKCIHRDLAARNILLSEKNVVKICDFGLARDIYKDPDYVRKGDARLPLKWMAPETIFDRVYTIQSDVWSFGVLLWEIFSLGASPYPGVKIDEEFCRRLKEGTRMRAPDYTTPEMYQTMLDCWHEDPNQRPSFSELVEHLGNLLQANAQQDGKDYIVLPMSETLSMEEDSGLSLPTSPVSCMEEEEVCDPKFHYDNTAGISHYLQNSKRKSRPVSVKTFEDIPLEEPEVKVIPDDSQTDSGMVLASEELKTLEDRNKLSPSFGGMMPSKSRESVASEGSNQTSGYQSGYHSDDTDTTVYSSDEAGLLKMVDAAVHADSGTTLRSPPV

IC50 [nM]	SMILES
9	CCN(CC)CCNC(=O)c1c(C)[nH]c(/C=C2\C(=O)Nc3cccc(-c4ccccc4)c32)c1C [Example 3, 2,4-Dimethyl-5-(2-oxo-4-phenyl-1,2-dihydro-indol-3-ylidenemethyl)-1H-pyrrole-3-carboxylic Acid (2-Diethylamino-ethyl)-amide]
74	Cc1[nH]c(/C=C2\C(=O)Nc3cccc(-c4ccc(F)cc4)c32)c(C)c1C(=O)N1CCN(C)CC1 [Example 4, 3-[3,5-Dimethyl-4-(4-methyl-piperazine-1-carbonyl)-1H-pyrrol-2-ylmethylene]-4-(4-fluoro-phenyl)-1,3-dihydro-indol-2-one]
21	Cc1[nH]c(/C=C2\C(=O)Nc3cccc(-c4ccc(F)cc4)c32)c(C)c1C(=O)NCCN1CCCC1 [Example 6, 5-[4-(4-Fluoro-phenyl)-2-oxo-1,2-dihydro-indol-3-ylidenemethyl]-2,4-dimethyl-1H-pyrrole-3-carboxylic Acid (2-Pyrrolidin-1-yl-ethyl)-amide]
180	Cc1cc(C(=O)N2CC[C@H](N(C)C)C2)c(/C=C2\C(=O)Nc3cccc(-c4ccc(F)cc4)c32)[nH]1 [Example 10, 3-[3-((S)-3-Dimethylamino-pyrrolidine-1-carbonyl)-5-methyl-1H-pyrrol-2-ylmethylene]-4-(4-fluoro-phenyl)-1,3-dihydro-indol-2-one]
13	CCN(CC)CCNC(=O)c1c(C)[nH]c(/C=C2\C(=O)Nc3cccc(-c4cccc(F)c4)c32)c1C [Example 13, 5-[4-(3-Fluoro-phenyl)-2-oxo-1,2-dihydro-indol-3-ylidenemethyl]-2,4-dimethyl-1H-pyrrole-3-carboxylic Acid (2-Diethylamino-ethyl)-amide]
32	Cc1[nH]c(/C=C2\C(=O)Nc3cccc(-c4cccc(F)c4)c32)c(C)c1C(=O)NCCn1ccnn1 [Example 15, 5-[4-(3-Fluoro-phenyl)-2-oxo-1,2-dihydro-indol-3-ylidenemethyl]-2,4-dimethyl-1H-pyrrole-3-carboxylic Acid (2-[1,2,3]Triazol-1-yl-ethyl)-amide]
420	CCOC(=O)c1c(C)[nH]c(/C=C2\C(=O)Nc3cccc(-c4cccc(F)c4)c32)c1CCCN1CCN(C)CC1 [Example 18, 5-[4-(3-Fluoro-phenyl)-2-oxo-1,2-dihydro-indol-3-ylidenemethyl]-2-methyl-4-[3-(4-methyl-piperazin-1-yl)-propyl]-1H-pyrrole-3-carboxylic Acid Ethyl Ester]
230	Cc1[nH]c(/C=C2\C(=O)Nc3cccc(-c4ccc(Cl)cc4)c32)c(C)c1C(=O)N1CCN(C)CC1 [Example 20, 4-(4-Chloro-phenyl)-3-[3,5-dimethyl-4-(4-methyl-piperazine-1-carbonyl)-1H-pyrrol-2-ylmethylene]-1,3-dihydro-indol-2-one]
16	Cc1[nH]c(/C=C2\C(=O)Nc3cccc(-c4ccc(Cl)cc4)c32)c(C)c1C(=O)NCCN1CCCC1 [Example 22, 5-[4-(4-Chloro-phenyl)-2-oxo-1,2-dihydro-indol-3-ylidenemethyl]-2,4-dimethyl-1H-pyrrole-3-carboxylic Acid (2-Pyrrolidin-1-yl-ethyl)-amide]
180	Cc1cc(C(=O)N2CC[C@@H](N(C)C)C2)c(/C=C2\C(=O)Nc3cccc(-c4ccc(Cl)cc4)c32)[nH]1 [Example 25, 4-(4-Chloro-phenyl)-3-[3-((R)-3-dimethylamino-pyrrolidine-1-carbonyl)-5-methyl-1H-pyrrol-2-ylmethylene]-1,3-dihydro-indol-2-one]
170	Cc1cc(C(=O)N2C[C@@H](C)N[C@@H](C)C2)c(/C=C2\C(=O)Nc3cccc(-c4ccc(Cl)cc4)c32)[nH]1 [Example 27]
41	CCN(CC)CCNC(=O)c1c(C)[nH]c(/C=C2\C(=O)Nc3cccc(-c4cccc(Cl)c4)c32)c1C [Example 29, 5-[4-(3-Chloro-phenyl)-2-oxo-1,2-dihydro-indol-3-ylidenemethyl]-2,4-dimethyl-1H-pyrrole-3-carboxylic Acid (2-Diethylamino-ethyl)-amide]
51	Cc1cc(C(=O)N2CC[C@H](N(C)C)C2)c(/C=C2\C(=O)Nc3cccc(-c4cccc(Cl)c4)c32)[nH]1 [Example 32, 4-(3-Chloro-phenyl)-3-[3-((S)-3-dimethylamino-pyrrolidine-1-carbonyl)-5-methyl-1H-pyrrol-2-ylmethylene]-1,3-dihydro-indol-2-one]
1060	Cc1cc(C(=O)NCCn2ccnn2)c(/C=C2\C(=O)Nc3cccc(-c4cccc(Cl)c4)c32)[nH]1 [Example 34, 2-[4-(3-Chloro-phenyl)-2-oxo-1,2-dihydro-indol-3-ylidenemethyl]-5-methyl-1H-pyrrole-3-carboxylic Acid (2-[1,2,3]Triazol-1-yl-ethyl)-amide]
92	Cc1cc(C(=O)N2C[C@@H](C)N[C@@H](C)C2)c(/C=C2\C(=O)Nc3cccc(-c4cccc(Cl)c4)c32)[nH]1 [Example 35, 4-(3-Chloro-phenyl)-3-[3-((cis)-3,5-dimethyl-piperazine-1-carbonyl)-5-methyl-1H-pyrrol-2-ylmethylene]-1,3-dihydro-indol-2-one]
29	COc1ccc(-c2cccc3c2/C(=C/c2[nH]c(C)c(C(=O)NCCN4CCCC4)c2C)C(=O)N3)cc1 [Example 38, 5-[4-(4-Methoxy-phenyl)-2-oxo-1,2-dihydro-indol-3-ylidenemethyl]-2,4-dimethyl-1H-pyrrole-3-carboxylic Acid (2-Pyrrolidin-1-yl-ethyl)-amide]
41	COc1ccc(-c2cccc3c2/C(=C/c2[nH]c(C)c(C(=O)N4C[C@@H](C)N[C@@H](C)C4)c2C)C(=O)N3)cc1 [Example 40, 3-[4-((cis)-3,5-Dimethyl-piperazine-1-carbonyl)-3,5-dimethyl-1H-pyrrol-2-ylmethylene]-4-(4-methoxy-phenyl)-1,3-dihydro-indol-2-one]
79	COc1ccc(-c2cccc3c2/C(=C/c2[nH]c(C)cc2C(=O)NCCN2CCCC2)C(=O)N3)cc1 [Example 41, 2-[4-(4-Methoxy-phenyl)-2-oxo-1,2-dihydro-indol-3-ylidenemethyl]-5-methyl-1H-pyrrole-3-carboxylic Acid (2-Pyrrolidin-1-yl-ethyl)-amide]
9	CCN(CC)CCNC(=O)c1c(C)[nH]c(/C=C2\C(=O)Nc3cccc(-c4cccc(OC)c4)c32)c1C [Example 46, 5-[4-(3-Methoxy-phenyl)-2-oxo-1,2-dihydro-indol-3-ylidenemethyl]-2,4-dimethyl-1H-pyrrole-3-carboxylic Acid (2-Diethylamino-ethyl)-amide]
12	COc1cccc(-c2cccc3c2/C(=C/c2[nH]c(C)c(C(=O)NCCn4ccnn4)c2C)C(=O)N3)c1 [Example 48, 5-[4-(3-Methoxy-phenyl)-2-oxo-1,2-dihydro-indol-3-ylidenemethyl]-2,4-dimethyl-1H-pyrrole-3-carboxylic Acid (2-[1,2,3]Triazol-1-yl-ethyl)-amide]
